Ends that are not written are not given here.

For this series the following is noted: rat, in vivo.

RHAYRSMAEWGFLYS [PGD3-4] had a Half-life of 2.45 h.

The values are drawn from publication PMC3012785 (Journal of neurochemistry, 2010).
